Experimental data taken from ChEMBL document CHEMBL3991601, “The target landscape of clinical kinase drugs” (Science, 2017).
Counter-ions that a name gives are not always drawn. Activity calls are given as the source filed them. Cut-off read from the data, not from the text of the source, for most assays here: actives have a measured Kd and inactives only a lower limit.

Tests used:
Ephrin type-A receptor 5 = Ephrin type-A receptor 5 (Homo sapiens, UniProt P54756)
[1] = molecular target: Interleukin-1 receptor-associated kinase 1 (Homo sapiens, UniProt P51617)
[2] = molecular target: T1, Receptor-type tyrosine-protein kinase FLT3 (Homo sapiens, UniProt P36888)
T1 sequence (P36888 whole entry): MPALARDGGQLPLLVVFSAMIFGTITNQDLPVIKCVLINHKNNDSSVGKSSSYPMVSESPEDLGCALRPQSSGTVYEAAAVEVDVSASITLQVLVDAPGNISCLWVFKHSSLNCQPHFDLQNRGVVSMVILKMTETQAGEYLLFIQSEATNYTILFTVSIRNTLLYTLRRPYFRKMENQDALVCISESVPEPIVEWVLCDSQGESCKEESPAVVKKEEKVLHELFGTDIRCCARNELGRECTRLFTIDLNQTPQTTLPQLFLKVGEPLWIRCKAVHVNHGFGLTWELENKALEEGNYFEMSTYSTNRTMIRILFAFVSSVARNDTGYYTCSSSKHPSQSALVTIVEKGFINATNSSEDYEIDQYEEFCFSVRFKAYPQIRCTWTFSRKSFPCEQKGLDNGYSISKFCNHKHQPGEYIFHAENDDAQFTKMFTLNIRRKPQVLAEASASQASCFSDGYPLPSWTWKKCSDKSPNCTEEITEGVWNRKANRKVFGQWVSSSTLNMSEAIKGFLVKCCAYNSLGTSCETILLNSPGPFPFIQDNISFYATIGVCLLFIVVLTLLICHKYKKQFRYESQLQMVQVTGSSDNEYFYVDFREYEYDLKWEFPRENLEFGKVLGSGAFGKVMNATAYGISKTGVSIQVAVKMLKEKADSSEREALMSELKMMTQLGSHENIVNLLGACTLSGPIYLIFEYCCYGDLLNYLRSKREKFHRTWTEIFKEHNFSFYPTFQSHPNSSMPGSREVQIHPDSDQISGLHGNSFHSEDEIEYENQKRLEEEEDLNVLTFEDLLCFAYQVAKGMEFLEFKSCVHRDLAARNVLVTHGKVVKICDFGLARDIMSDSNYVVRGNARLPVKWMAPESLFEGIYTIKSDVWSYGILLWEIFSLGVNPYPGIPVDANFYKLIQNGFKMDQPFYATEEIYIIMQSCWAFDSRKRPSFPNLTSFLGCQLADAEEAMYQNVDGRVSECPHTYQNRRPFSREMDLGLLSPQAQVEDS

[3] = molecular target: Epidermal growth factor receptor (Homo sapiens, UniProt P00533)
[4] = molecular target: BMP-2-inducible protein kinase (Homo sapiens, UniProt Q9NSY1)
[5] = molecular target: Serine/threonine-protein kinase PAK 2 (Homo sapiens, UniProt Q13177)
[6] = molecular target: Dual specificity mitogen-activated protein kinase kinase 2 (Homo sapiens, UniProt P36507)
[7] = molecular target: Tyrosine-protein kinase JAK1 (Homo sapiens, UniProt P23458)
[8] = molecular target: T2, ATP-dependent RNA helicase DDX1 (Homo sapiens, UniProt Q92499)
T2 sequence (Q92499 whole entry): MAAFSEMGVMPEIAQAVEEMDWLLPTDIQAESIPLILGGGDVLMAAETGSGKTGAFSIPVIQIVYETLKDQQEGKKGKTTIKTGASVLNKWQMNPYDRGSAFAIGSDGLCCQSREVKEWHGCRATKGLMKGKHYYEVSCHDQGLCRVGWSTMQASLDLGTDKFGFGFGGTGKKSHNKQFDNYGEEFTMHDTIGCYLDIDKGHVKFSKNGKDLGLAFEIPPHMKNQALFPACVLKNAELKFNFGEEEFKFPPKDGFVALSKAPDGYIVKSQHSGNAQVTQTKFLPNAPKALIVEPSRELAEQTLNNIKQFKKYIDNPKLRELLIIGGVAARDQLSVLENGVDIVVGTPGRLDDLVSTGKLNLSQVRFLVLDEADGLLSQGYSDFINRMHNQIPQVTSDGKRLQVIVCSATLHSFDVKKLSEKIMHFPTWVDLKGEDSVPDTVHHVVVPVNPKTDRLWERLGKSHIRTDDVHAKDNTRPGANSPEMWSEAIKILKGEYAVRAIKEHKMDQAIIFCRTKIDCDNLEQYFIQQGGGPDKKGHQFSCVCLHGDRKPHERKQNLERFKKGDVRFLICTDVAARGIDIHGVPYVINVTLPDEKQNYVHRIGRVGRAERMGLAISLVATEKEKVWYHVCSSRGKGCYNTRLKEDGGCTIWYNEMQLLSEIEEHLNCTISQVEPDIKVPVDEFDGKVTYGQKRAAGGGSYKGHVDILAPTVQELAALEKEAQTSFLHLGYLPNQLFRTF

[9] = molecular target: Dual specificity testis-specific protein kinase 1 (Homo sapiens, UniProt Q15569)
[10] = molecular target: T3, Mitogen-activated protein kinase kinase kinase 3 (Homo sapiens, UniProt Q99759)
T3 sequence (Q99759 whole entry): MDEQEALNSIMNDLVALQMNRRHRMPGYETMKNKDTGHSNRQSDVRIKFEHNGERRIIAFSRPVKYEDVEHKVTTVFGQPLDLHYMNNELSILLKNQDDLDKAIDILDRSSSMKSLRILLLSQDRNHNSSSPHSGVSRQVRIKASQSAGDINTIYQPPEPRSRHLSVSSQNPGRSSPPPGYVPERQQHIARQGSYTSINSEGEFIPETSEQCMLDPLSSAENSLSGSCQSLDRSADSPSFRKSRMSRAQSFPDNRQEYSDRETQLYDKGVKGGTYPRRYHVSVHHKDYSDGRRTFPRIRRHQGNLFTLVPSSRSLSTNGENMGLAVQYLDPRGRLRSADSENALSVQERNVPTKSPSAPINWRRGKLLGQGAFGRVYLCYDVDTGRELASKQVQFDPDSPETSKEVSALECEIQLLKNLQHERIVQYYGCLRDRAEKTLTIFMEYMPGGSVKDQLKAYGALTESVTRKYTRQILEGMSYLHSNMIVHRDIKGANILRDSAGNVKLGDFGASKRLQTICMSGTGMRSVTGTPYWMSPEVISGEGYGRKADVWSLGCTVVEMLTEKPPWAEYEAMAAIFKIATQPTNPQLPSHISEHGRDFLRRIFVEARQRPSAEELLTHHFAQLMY

Measured: Kd
Note: in the data inactive means no Kd found up to 30 µM.

Sequence of Dual specificity mitogen-activated protein kinase kinase 2 (P36507 whole entry): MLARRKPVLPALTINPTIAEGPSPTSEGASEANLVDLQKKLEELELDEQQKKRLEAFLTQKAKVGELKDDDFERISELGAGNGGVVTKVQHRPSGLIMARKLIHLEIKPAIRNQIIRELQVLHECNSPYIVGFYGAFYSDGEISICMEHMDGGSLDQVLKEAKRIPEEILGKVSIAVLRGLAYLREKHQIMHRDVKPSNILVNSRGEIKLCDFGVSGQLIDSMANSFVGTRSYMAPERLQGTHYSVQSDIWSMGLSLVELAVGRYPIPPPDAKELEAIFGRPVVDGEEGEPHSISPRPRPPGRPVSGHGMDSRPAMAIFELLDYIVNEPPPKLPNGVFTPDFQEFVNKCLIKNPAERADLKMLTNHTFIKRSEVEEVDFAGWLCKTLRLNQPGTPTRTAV
Sequence of Interleukin-1 receptor-associated kinase 1 (P51617 whole entry): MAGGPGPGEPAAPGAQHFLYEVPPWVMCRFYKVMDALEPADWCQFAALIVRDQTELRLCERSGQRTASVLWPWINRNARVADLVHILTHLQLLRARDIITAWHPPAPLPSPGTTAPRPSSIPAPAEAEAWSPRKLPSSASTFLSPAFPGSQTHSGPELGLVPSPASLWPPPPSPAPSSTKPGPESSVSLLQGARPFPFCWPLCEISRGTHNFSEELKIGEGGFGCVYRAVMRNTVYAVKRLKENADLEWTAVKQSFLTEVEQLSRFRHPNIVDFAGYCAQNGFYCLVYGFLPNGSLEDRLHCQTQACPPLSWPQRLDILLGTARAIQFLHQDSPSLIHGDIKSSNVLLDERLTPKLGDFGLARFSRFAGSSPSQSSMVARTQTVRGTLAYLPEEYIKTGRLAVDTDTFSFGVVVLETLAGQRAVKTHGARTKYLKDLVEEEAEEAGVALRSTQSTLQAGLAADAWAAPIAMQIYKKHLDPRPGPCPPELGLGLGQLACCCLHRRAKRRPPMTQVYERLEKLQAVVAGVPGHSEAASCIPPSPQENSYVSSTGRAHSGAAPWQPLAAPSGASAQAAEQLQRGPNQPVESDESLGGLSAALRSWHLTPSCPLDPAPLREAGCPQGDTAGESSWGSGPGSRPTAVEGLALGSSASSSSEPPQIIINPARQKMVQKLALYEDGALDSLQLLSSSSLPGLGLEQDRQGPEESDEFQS
Sequence of Dual specificity testis-specific protein kinase 1 (Q15569 whole entry): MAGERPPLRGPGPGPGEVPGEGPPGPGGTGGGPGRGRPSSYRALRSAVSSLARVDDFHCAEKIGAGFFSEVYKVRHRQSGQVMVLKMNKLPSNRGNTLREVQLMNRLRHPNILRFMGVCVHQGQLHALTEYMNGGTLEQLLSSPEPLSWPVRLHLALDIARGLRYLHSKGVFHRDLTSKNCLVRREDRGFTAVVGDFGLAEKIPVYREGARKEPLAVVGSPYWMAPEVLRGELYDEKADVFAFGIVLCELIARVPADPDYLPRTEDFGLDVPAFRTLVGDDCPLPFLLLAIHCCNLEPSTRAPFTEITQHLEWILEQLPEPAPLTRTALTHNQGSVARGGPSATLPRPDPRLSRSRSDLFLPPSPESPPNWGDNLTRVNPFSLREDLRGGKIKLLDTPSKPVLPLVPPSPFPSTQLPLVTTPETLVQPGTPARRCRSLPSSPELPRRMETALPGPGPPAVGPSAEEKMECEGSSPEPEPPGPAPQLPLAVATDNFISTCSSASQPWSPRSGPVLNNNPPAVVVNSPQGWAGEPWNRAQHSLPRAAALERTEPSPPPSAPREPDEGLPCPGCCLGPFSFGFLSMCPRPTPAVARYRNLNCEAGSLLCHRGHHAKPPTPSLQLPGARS
Sequence of Serine/threonine-protein kinase PAK 2 (Q13177 whole entry): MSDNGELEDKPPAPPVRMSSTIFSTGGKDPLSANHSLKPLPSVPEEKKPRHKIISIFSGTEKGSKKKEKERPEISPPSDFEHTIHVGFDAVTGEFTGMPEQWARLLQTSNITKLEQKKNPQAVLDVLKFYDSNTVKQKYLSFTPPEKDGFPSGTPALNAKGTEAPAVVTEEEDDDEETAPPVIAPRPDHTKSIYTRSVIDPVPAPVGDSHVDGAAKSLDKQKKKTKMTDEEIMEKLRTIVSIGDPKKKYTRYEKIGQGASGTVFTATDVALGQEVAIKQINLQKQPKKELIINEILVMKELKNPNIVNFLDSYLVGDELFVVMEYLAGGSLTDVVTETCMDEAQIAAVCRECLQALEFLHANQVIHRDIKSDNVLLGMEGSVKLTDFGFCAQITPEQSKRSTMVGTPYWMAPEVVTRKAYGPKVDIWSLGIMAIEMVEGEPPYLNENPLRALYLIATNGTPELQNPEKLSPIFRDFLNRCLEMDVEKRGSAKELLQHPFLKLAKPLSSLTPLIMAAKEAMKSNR
Sequence of Ephrin type-A receptor 5 (P54756 whole entry): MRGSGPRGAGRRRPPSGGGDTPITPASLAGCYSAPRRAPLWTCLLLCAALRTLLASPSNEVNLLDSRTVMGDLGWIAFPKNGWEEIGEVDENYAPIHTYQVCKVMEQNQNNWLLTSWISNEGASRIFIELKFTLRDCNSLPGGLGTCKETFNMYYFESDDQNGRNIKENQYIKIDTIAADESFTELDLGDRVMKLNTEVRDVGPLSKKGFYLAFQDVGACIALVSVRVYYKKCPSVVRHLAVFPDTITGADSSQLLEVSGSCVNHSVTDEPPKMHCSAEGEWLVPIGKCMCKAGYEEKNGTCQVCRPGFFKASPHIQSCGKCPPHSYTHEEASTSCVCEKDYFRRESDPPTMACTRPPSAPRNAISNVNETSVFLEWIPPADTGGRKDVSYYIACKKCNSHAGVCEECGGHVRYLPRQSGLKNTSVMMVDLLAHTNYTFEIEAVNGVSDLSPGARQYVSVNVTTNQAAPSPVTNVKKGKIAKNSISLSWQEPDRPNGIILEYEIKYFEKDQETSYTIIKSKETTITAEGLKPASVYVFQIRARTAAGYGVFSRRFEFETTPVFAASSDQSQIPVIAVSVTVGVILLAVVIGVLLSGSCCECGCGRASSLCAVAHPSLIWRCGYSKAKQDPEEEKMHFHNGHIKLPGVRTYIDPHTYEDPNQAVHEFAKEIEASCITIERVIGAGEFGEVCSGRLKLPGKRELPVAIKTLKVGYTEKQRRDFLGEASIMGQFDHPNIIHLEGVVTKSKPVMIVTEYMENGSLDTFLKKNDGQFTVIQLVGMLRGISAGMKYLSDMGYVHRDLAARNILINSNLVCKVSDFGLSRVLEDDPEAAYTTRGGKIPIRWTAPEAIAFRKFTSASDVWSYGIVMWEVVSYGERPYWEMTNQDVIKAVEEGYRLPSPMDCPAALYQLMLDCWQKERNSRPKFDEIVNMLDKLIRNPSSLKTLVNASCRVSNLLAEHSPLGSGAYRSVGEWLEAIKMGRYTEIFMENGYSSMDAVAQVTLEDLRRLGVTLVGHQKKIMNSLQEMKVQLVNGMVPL
Sequence of Tyrosine-protein kinase JAK1 (P23458 whole entry): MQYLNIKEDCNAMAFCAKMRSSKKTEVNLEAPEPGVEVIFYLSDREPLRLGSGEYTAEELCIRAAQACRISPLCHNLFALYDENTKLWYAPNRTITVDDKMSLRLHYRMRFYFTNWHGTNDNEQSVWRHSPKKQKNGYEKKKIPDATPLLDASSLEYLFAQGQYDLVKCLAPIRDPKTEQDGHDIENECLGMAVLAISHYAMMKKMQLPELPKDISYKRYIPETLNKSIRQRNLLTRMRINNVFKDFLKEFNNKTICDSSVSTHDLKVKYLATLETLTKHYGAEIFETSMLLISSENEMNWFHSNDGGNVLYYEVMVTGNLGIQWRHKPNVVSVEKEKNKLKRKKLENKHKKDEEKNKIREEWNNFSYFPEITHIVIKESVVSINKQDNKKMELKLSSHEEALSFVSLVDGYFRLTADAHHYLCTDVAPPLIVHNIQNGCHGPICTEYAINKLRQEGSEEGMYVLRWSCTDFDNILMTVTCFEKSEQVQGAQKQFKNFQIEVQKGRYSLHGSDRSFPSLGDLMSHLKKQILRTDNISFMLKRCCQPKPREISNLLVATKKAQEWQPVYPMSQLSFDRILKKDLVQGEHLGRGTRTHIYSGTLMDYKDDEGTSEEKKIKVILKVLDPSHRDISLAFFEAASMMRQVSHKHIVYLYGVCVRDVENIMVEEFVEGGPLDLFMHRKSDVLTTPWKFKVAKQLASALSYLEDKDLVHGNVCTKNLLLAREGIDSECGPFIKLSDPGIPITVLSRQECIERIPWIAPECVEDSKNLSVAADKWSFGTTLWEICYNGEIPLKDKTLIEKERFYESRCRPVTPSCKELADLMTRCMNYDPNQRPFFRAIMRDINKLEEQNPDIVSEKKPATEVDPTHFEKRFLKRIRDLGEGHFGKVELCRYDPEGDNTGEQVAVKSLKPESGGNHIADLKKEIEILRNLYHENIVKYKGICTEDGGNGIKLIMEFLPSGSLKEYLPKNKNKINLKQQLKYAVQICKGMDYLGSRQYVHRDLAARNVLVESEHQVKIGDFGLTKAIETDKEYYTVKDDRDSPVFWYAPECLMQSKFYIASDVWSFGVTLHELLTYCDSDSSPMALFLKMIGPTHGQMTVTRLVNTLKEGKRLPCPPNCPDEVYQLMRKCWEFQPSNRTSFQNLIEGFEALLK

O=C(Cc1ccc(-c2ccc(OCCN3CCOCC3)cc2)cn1)NCc1ccccc1 [TIRBANIBULIN]
inactive: Ephrin type-A receptor 5 > 30 µM | [1] > 30 µM | [2] > 30 µM | [3] > 30 µM | [4] > 30 µM | [5] > 30 µM | [6] > 30 µM | [7] > 30 µM | [8] > 30 µM | [9] > 30 µM | [10] > 30 µM

CCS(=O)(=O)N1CCN(c2ccc(Nc3ncc(C(N)=O)c(NC4CC4)n3)cc2)CC1 [Cerdulatinib Hydrochloride]
inactive: Ephrin type-A receptor 5 > 30 µM | [1] > 30 µM | [3] > 30 µM | [5] > 30 µM | [6] > 30 µM | [8] > 30 µM | [9] > 30 µM
active: [2] 1.5 µM | [4] 0.0008 µM | [7] 0.078 µM | [10] 1.09 µM

NC1(c2ccc(-c3nc4ccn5c(=O)[nH]nc5c4cc3-c3ccccc3)cc2)CCC1 [MK-2206]
inactive: Ephrin type-A receptor 5 > 30 µM | [1] > 30 µM | [2] > 30 µM | [3] > 30 µM | [4] > 30 µM | [5] > 30 µM | [6] > 30 µM | [7] > 30 µM | [8] > 30 µM | [9] > 30 µM | [10] > 30 µM

Cc1nc2cc(-c3nn(C(C)C)c4ncnc(N)c34)ccc2o1
active: [2] 7.04 µM | [6] 1.92 µM
inactive: Ephrin type-A receptor 5 > 30 µM | [1] > 30 µM | [3] > 30 µM | [4] > 30 µM | [5] > 30 µM | [7] > 30 µM | [8] > 30 µM | [9] > 30 µM | [10] > 30 µM

O=C1NC(=O)[C@@H](c2cn3c4c(cccc24)CCC3)[C@@H]1c1c[nH]c2ccccc12 [TIVANTINIB]
inactive: Ephrin type-A receptor 5 > 30 µM | [1] > 30 µM | [2] > 30 µM | [3] > 30 µM | [4] > 30 µM | [5] > 30 µM | [6] > 30 µM | [7] > 30 µM | [8] > 30 µM | [9] > 30 µM | [10] > 30 µM

CO[C@H]1C[C@@H]2CC[C@@H](C)[C@@](O)(O2)C(=O)C(=O)N2CCCC[C@H]2C(=O)O[C@H]([C@H](C)C[C@@H]2CC[C@@H](OP(C)(C)=O)[C@H](OC)C2)CC(=O)[C@H](C)/C=C(\C)[C@@H](O)[C@@H](OC)C(=O)[C@H](C)C[C@H](C)/C=C/C=C/C=C/1C [RIDAFOROLIMUS]
inactive: Ephrin type-A receptor 5 > 30 µM | [1] > 30 µM | [2] > 30 µM | [3] > 30 µM | [4] > 30 µM | [5] > 30 µM | [6] > 30 µM | [7] > 30 µM | [8] > 30 µM | [9] > 30 µM | [10] > 30 µM

Cc1nc(NC(=O)N2CCC[C@H]2C(N)=O)sc1-c1ccnc(C(C)(C)C(F)(F)F)c1 [ALPELISIB]
inactive: Ephrin type-A receptor 5 > 30 µM | [1] > 30 µM | [2] > 30 µM | [3] > 30 µM | [4] > 30 µM | [5] > 30 µM | [6] > 30 µM | [7] > 30 µM | [8] > 30 µM | [9] > 30 µM | [10] > 30 µM

CCCCCCCCCCCCCCCCCCOP(=O)([O-])OC1CC[N+](C)(C)CC1 [PERIFOSINE]
inactive: Ephrin type-A receptor 5 > 30 µM | [1] > 30 µM | [2] > 30 µM | [3] > 30 µM | [4] > 30 µM | [5] > 30 µM | [6] > 30 µM | [7] > 30 µM | [8] > 30 µM | [9] > 30 µM | [10] > 30 µM

COc1ncc(-c2ccc3nccc(-c4ccnnc4)c3c2)cc1NS(=O)(=O)c1ccc(F)cc1F [OMIPALISIB]
inactive: Ephrin type-A receptor 5 > 30 µM | [1] > 30 µM | [2] > 30 µM | [3] > 30 µM | [4] > 30 µM | [5] > 30 µM | [6] > 30 µM | [7] > 30 µM | [8] > 30 µM | [9] > 30 µM | [10] > 30 µM

Cc1cnc(NC(=O)Nc2cc(Br)c(C)cc2OC[C@@H]2CNCCO2)cn1 [RABUSERTIB]
inactive: Ephrin type-A receptor 5 > 30 µM | [1] > 30 µM | [2] > 30 µM | [3] > 30 µM | [4] > 30 µM | [5] > 30 µM | [6] > 30 µM | [7] > 30 µM | [8] > 30 µM | [9] > 30 µM | [10] > 30 µM

Cc1cccc(-c2nn3c(c2-c2ccnc4ccc(C(N)=O)cc24)CCC3)n1 [GALUNISERTIB]
inactive: Ephrin type-A receptor 5 > 30 µM | [1] > 30 µM | [2] > 30 µM | [3] > 30 µM | [4] > 30 µM | [5] > 30 µM | [6] > 30 µM | [7] > 30 µM | [8] > 30 µM | [9] > 30 µM | [10] > 30 µM

Cc1nc(Nc2n[nH]c3c2CN(C(=O)N[C@H](CN(C)C)c2ccccc2)C3(C)C)c2sccc2n1 [PF-03758309]
inactive: Ephrin type-A receptor 5 > 30 µM | [1] > 30 µM | [3] > 30 µM | [5] > 30 µM | [6] > 30 µM | [7] > 30 µM | [8] > 30 µM | [9] > 30 µM | [10] > 30 µM
active: [2] 1.44 µM | [4] 2.54 µM

COc1cc([C@@H]2c3cc4c(cc3[C@H](O)[C@H]3COC(=O)[C@@H]23)OCO4)cc(OC)c1OC [AXL-1717]
inactive: Ephrin type-A receptor 5 > 30 µM | [1] > 30 µM | [2] > 30 µM | [3] > 30 µM | [4] > 30 µM | [5] > 30 µM | [6] > 30 µM | [7] > 30 µM | [8] > 30 µM | [9] > 30 µM | [10] > 30 µM
